Assay results published in the supplement of paper PMC10307832.

Experiments:
Test in all cases: relative viability (nuclei count vs DMSO), 5 days (fraction); higher = more cells survive
[1] = compound: CCN1C(=O)C2=CC(=C(N=C2N(C1=O)C3CC3)N)C(=O)N + CC(C)C[C@H](NC(=O)[C@H](Cc1ccccc1)NC(=O)c1cnccn1)B(O)O [Bortezomib] (partner 0.002 µM)
Summary of the method: (§1)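 A single step with final 0.05% Triton X-100, 1% formaldehyde and 1 ug/ml Hoechst fixed the cells and stained nuclei 5 days after treatment. Lung cancer cell lines in 1536-well plates had been treated by pin tool the day after seeding with one drug alone or a fixed anchor-drug dose plus five library-drug doses (not always all listed) in √10 steps, and nuclei were counted on 4× images. Relative viability is the ratio of nuclei in treated wells to nuclei in vehicle wells, taken as the median of duplicate plates.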

[2] = compound: CCN1C(=O)C2=CC(=C(N=C2N(C1=O)C3CC3)N)C(=O)N + COc1cccc2cc(-c3nc([C@H]4CC[C@H](C(=O)O)CC4)n4ncnc(N)c34)[nH]c12 [OSI-027] (partner 0.5 µM)
Summary of the method: as §1

[3] = compound: CCN1C(=O)C2=CC(=C(N=C2N(C1=O)C3CC3)N)C(=O)N + CS(=O)(=O)CCNCc1ccc(-c2ccc3ncnc(Nc4ccc(OCc5cccc(F)c5)c(Cl)c4)c3c2)o1 [Lapatinib] (partner 2 µM)
Summary of the method: as §1

[4] = compound: CCN1C(=O)C2=CC(=C(N=C2N(C1=O)C3CC3)N)C(=O)N + CC1(C)CCC(c2ccc(Cl)cc2)=C(CN2CCN(c3ccc(C(=O)NS(=O)(=O)c4ccc(N[C@H](CCN5CCOCC5)CSc5ccccc5)c(S(=O)(=O)C(F)(F)F)c4)cc3)CC2)C1 [Navitoclax] (partner 0.5 µM)
Summary of the method: as §1

[5] = compound: CCN1C(=O)C2=CC(=C(N=C2N(C1=O)C3CC3)N)C(=O)N + CS(=O)(=O)N1CCN(Cc2cc3nc(-c4cccc5[nH]ncc45)nc(N4CCOCC4)c3s2)CC1 [Pictilisib] (partner 1 µM)
Summary of the method: as §1

Cell Line	relative viability ([1]; first compound 0.253 µM)	relative viability ([1]; first compound 0.8 µM)	relative viability ([1]; first compound 2.53 µM)	relative viability ([1]; first compound 8 µM)	relative viability ([2]; first compound 0.253 µM)	relative viability ([2]; first compound 0.8 µM)	relative viability ([2]; first compound 2.53 µM)	relative viability ([2]; first compound 8 µM)	relative viability ([3]; first compound 0.253 µM)	relative viability ([3]; first compound 0.8 µM)	relative viability ([3]; first compound 2.53 µM)	relative viability ([3]; first compound 8 µM)	relative viability ([4]; first compound 0.253 µM)	relative viability ([4]; first compound 0.8 µM)	relative viability ([4]; first compound 2.53 µM)	relative viability ([4]; first compound 8 µM)	relative viability ([5]; first compound 0.253 µM)	relative viability ([5]; first compound 0.8 µM)	relative viability ([5]; first compound 2.53 µM)	relative viability ([5]; first compound 8 µM)
NCI-H3122	1.04	1.01	1.02	1.01	0.888	0.948	0.905	0.93	1	1.05	0.951	1.03	1.06	1.02	1.02	1.01	0.51	0.695	0.554	0.658
A549									0.981	0.914	0.94	1.1	1.14	1.13	1.22	1.16	0.557	0.553	0.41	0.592
NCI-H838	0.857	0.887	0.891	0.912	0.404	0.406	0.41	0.374	0.948	1.02	0.916	0.896	1.21	1.19	1.13	1.09	0.468	0.41	0.437	0.503
NCI-H441	0.464	0.421	0.456	0.775	0.686	0.746	0.703	0.583					0.768	0.482	0.64	0.649	0.561	0.48	0.462	0.576
HOP-62	0.914	0.75	0.754	0.733	0.96	0.919	0.795	0.883	0.844	1.29	1.01	1.1	1.08	1.11	0.969	0.924	1.01	0.883	0.413	0.804
SW 1573	0.994	1.14	0.935	1.04	0.534	0.612	0.675	0.587	1.03	1.02	1.23	0.985	0.949	0.977	0.919	0.979	0.51	0.519	0.464	0.551
HCC-44	0.896	0.895	0.879	0.877	0.568	0.446	0.527	0.421	0.927	1.01	1.03	0.986	1.04	0.994	0.985	1.02	0.599	0.6	0.564	0.641
LCLC-103H	1.07	0.981	1.05	1.05	0.411	0.475	0.49	0.399									0.57	0.581	0.501	0.582
